Laboratory results: patent US20070190520A1, “METHOD OF CHARACTERIZING A BIOLOGICALLY ACTIVE COMPOUND” (priority 2006, published 2007)

Tested on: Adult stem cells from peripheral blood (CD34+/CD38−)
Assay: viability and cell number of peripheral blood stem cells expanded in a rotatable TVEMF bioreactor (Example 4)
Assay type: cell-based
Conditions: 20 ppm added at initiation, end of 14 days, Sample 2 cells from an individual with known liver damage
Experimental: The rotatable bioreactor may preferably be filled with culture medium consisting of Isocove's modified Dulbecco's medium (IMDM) (GIBCO, Grand Island N.Y.), supplemented with 5% human albumin, 100 ng/ml recombinant human G-CSF (Amgen Inc., Thousand Oaks, Calif.), and 100 ng/ml recombinant human stem cell factor (SCF) (Amgen). In addition, D-Penicillamine [D(−)-2-Amino-3-mercapto-3-methylbutonoic acid] (Sigma-Aldrich) a copper chelating agent, dissolved in DMSO, may preferably be introduced to the culture medium in the rotatable bioreactor in an amount of 10 ppm. Adult stem cells from peripheral blood (CD34+/CD38−) may preferably be placed in the culture chamber of the rotatable bioreactor at a concentration of 0.75×10^6 cells/ml.
Two samples of peripheral blood stem cells should preferably be prepared by this method. Sample 1 should preferably be from an individual with no known liver damage. Sample 2 should preferably be from an individual with known liver damage. The samples should be prepared as above and placed in two different rotatable bioreactors under the conditions noted in Example 1 and at the same concentrations.

With `CC(=O)Nc1ccc(O)cc1` [acetaminophen] the “viability and number of cells counted” value was “neither die nor grow, but rather, remain unchanged”.
